Data: patent US20170340742A1, “A METHOD FOR DELIVERING A SUBSTANCE INTO CELLS” (TECHNISCHE UNIVERSITÄT DARMSTADT, priority 2014, published 2017)
No end group written: not given here. Ahx = NCCCCCC(=O)O

Tested on: living cells
Test: Comparative test of cellular penetration of cell-penetrating compounds with and without mediator compounds at low and high pH
Type: cell-based
Parameters: key: −: no uptake detectable; +: low efficiency of uptake detectable; ++: moderate efficiency of uptake detectable; +++: strong de efficiency of uptake detectable; ++++: very strong efficiency of uptake detectable
Conditions: compound 2 μM, 30 min
Method: A comparative test of cellular penetration of different cell-penetrating compounds was performed in the presence and absence of different mediator compounds at low and high pH. The cell-penetrating compounds (2 μM) and the mediator compounds (6 μM) were mixed in Hepes buffers at low pH (6.5) and high pH (8.5).
The cell media (DMEM) was removed and exchanged by these solutions and incubated for 30 min. Then the solutions were removed and the cells were embedded back in cell culture media (DMEM) and imaged. The efficiency of uptake in the different conditions was determined.
The determined efficacy is depicted with increasing efficacy from “−” no uptake detectable, “+” low efficiency of uptake detectable, “++” moderate efficiency of uptake detectable, “+++” strong de efficiency of uptake detectable, “++++” very strong efficiency of uptake detectable.

Measured: Efficiency of uptake

TAMRA-Ahx-LGQQQPFPPQQPY ({TAMRA-Ahx}-LGQQQPFPPQQPY)
−: Mediator 1: Curcumin 6 μM, high pH of 8.5 | Mediator 1: Curcumin 6 μM, low pH of 6.5 | Mediator 2: Levothyroxine 6 μM, high pH of 8.5 | Mediator 2: Levothyroxine 6 μM, low pH of 6.5 | no mediator, high pH of 8.5 | no mediator, low pH of 6.5
